Measured values reported in US10160755B2 (Plexxikon Inc., priority 2015, dated 2018).

Experiments:
[1] = molecular target: T1, FLT3-D835Y (Homo sapiens, UniProt P36888, D835Y); assay: FLT3-D835Y biochemical kinase assay (AlphaScreen)
T1 construct: purchased Invitrogen PV3967
T1 sequence (P36888 27-993 D835Y): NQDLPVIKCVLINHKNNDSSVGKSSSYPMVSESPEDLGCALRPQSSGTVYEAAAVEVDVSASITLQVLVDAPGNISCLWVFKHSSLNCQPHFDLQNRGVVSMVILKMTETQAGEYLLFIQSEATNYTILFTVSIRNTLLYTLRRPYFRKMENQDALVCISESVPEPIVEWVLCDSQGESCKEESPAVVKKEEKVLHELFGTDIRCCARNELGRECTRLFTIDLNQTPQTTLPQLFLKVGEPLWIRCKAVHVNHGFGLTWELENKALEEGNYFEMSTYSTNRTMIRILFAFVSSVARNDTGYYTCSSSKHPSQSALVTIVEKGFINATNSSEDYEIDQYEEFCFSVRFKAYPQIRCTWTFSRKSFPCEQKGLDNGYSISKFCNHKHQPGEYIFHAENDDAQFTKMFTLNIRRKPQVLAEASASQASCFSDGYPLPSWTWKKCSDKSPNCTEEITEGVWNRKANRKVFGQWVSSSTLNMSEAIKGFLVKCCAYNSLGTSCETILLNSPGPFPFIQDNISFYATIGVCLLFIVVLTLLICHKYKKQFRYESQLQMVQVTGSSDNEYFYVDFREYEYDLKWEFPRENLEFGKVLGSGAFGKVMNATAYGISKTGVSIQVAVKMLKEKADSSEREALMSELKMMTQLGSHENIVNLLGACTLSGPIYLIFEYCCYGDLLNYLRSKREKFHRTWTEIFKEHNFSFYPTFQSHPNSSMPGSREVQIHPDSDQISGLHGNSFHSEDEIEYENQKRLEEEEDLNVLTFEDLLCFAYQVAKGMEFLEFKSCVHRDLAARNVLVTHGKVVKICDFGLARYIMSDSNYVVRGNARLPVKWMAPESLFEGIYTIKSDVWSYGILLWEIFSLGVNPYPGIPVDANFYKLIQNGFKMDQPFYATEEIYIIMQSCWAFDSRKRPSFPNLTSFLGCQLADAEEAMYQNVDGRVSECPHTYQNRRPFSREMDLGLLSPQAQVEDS
Procedure, shortened: (§1)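 IC50 values reflect loss of AlphaScreen proximity signal (excitation 680 nm, emission 580 nm) from tyrosine phosphorylation of a biotinylated poly(Glu4-Tyr) substrate at 30 nM. ATP was 10 μM for the D835Y mutant and 100 μM for ITD. Detection used PY20 acceptor beads.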

[2] = molecular target: c-Kit (Homo sapiens, UniProt P10721); assay: c-Kit biochemical assay (per US 2007/0032519)
Chain of c-Kit (P10721 26-976): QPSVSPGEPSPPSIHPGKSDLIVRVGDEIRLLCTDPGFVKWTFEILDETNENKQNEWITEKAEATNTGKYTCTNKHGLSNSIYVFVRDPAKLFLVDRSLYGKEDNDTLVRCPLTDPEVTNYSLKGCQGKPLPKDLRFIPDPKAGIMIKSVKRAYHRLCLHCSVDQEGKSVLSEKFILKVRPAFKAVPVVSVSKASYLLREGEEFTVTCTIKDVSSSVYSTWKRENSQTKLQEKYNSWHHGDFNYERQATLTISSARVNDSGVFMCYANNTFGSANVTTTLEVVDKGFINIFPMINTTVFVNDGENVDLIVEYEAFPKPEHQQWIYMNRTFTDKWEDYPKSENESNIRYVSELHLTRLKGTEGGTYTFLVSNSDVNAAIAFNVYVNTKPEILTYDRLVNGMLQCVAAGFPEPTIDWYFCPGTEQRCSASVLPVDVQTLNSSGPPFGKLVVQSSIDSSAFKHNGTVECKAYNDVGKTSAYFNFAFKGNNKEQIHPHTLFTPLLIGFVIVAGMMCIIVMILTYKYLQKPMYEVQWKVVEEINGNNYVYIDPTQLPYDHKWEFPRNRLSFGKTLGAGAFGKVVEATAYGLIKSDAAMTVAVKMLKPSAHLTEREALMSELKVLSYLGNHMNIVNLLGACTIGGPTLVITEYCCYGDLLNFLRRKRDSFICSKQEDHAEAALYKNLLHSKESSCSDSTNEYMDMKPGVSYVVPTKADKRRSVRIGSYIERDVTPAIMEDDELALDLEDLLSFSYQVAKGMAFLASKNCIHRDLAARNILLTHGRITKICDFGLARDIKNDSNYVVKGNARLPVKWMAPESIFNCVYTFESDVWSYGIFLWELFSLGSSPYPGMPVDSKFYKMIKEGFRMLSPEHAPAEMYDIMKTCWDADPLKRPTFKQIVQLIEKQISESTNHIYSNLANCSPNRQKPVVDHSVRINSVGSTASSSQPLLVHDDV
Procedure, shortened: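 Biochemical kinase inhibition run per US 2007/0032519; values reported as binned IC50 ranges (0.0001–1 μM, 1–10 μM, 10–200 μM).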

[3] = molecular target: T2, FLT3-ITD (Homo sapiens, UniProt P36888); assay: FLT3-ITD biochemical kinase assay (AlphaScreen)
T2 construct: FLT3-ITD; Invitrogen #PV6190
T2 sequence (P36888 1-993): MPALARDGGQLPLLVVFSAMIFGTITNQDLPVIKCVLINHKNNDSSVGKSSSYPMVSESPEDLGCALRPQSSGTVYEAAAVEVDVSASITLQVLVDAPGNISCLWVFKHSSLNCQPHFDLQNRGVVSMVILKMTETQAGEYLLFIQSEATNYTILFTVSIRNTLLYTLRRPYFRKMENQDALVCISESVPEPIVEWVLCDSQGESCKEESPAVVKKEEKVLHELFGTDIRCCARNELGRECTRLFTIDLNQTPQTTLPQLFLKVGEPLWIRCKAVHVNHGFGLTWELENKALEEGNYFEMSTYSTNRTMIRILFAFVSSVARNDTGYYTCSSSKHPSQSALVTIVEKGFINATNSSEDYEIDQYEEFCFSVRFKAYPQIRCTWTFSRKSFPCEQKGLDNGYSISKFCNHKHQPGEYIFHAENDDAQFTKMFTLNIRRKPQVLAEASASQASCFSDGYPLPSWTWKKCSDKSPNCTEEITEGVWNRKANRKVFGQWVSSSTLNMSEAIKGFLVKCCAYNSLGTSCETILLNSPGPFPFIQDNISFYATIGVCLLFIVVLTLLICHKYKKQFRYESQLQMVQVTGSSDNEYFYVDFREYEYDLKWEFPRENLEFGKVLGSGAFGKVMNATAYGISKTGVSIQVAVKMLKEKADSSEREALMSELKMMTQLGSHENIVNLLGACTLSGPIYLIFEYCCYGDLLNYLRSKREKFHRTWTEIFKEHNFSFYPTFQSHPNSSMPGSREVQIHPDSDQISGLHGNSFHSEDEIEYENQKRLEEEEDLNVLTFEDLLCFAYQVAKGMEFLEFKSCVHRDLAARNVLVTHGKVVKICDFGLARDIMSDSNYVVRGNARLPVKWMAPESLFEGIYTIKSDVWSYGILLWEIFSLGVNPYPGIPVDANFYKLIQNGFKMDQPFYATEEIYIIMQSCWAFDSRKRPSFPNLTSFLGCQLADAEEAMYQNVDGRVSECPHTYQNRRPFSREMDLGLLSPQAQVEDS
Procedure, shortened: as §1

SMILES | IC50 [1] | IC50 [2] | IC50 [3]
Cn1cnc2ccc(-c3c[nH]c4ncc(-c5cccc(OC(F)(F)F)c5)cc34)cc21 [P-131, 1-methyl-6-[5-[3-(trifluoromethoxy)phenyl]-1H-pyrrolo[2,3-b]pyridin-3-yl]benzimidazole] | 0.0001 to 1 µM | 10 to 200 µM | 0.0001 to 1 µM
Cn1cnc2ccc(-c3c[nH]c4ncc(-c5cccc(NS(C)(=O)=O)c5)nc34)cc21 [P-038, N-[3-[7-(3-methylbenzimidazol-5-yl)-5H-pyrrolo[2,3-b]pyrazin-2-yl]phenyl]methanesulfonamide] | 0.0001 to 1 µM | 10 to 200 µM | 0.0001 to 1 µM
N#Cc1cnc2[nH]cc(-c3ccc4nc[nH]c4c3)c2c1 [P-023, 3-(3H-benzimidazol-5-yl)-1H-pyrrolo[2,3-b]pyridine-5-carbonitrile] | 1 to 10 µM | 1 to 10 µM | 0.0001 to 1 µM
COc1cnc2[nH]cc(-c3ccc4ncnc(OC)c4c3)c2c1 [P-043, 4-methoxy-6-(5-methoxy-1H-pyrrolo[2,3-b]pyridin-3-yl)quinazoline] | 0.0001 to 1 µM | 1 to 10 µM | 0.0001 to 1 µM
CC1(COc2cnc3[nH]cc(-c4ccc5[nH]cnc5c4)c3c2)COC1 [P-008, 3-(1H-benzimidazol-5-yl)-5-[(3-methyloxetan-3-yl)methoxy]-1H-pyrrolo[2,3-b]pyridine] | 1 to 10 µM | 1 to 10 µM | 0.0001 to 1 µM
Cc1cnc2[nH]cc(-c3ccc4ncn(C)c4c3)c2c1 [P-018, 1-methyl-6-(5-methyl-1H-pyrrolo[2,3-b]pyridin-3-yl)benzimidazole] | 0.0001 to 1 µM | 1 to 10 µM | 0.0001 to 1 µM
c1cnc2[nH]cc(-c3ccc4[nH]nnc4c3)c2c1 [P-005, 5-(1H-pyrrolo[2,3-b]pyridin-3-yl)-1H-benzotriazole] | 10 to 200 µM | 10 to 200 µM | 1 to 10 µM
CS(=O)(=O)Nc1cccc(-c2cnc3[nH]cc(-c4ccc5[nH]cnc5c4)c3c2)c1 [P-013, N-[3-[3-(1H-benzimidazol-5-yl)-1H-pyrrolo[2,3-b]pyridin-5-yl]phenyl]methanesulfonamide] | 0.0001 to 1 µM | 1 to 10 µM | 0.0001 to 1 µM
O=C(C1CC1)N1CC=C(c2cnc3[nH]cc(-c4ccc5ncn(CC(F)(F)F)c5c4)c3n2)C1 [P-125, cyclopropyl-[3-[7-[3-(2,2,2-trifluoroethyl)benzimidazol-5-yl]-5H-pyrrolo[2,3-b]pyrazin-2-yl]-2,5-dihydropyrrol-1-yl]methanone] | 0.0001 to 1 µM | 1 to 10 µM | 0.0001 to 1 µM
CC(=O)Nc1cccc(-c2cnc3[nH]cc(-c4ccc5ncn(C)c5c4)c3c2)c1 [P-116, N-[3-[3-(3-methylbenzimidazol-5-yl)-1H-pyrrolo[2,3-b]pyridin-5-yl]phenyl]acetamide] | 0.0001 to 1 µM | 1 to 10 µM | 0.0001 to 1 µM
COc1cc(-c2cnc3[nH]cc(-c4ccc5ncn(C)c5c4)c3c2)cc(OC)n1 [P-123, 5-(2,6-dimethoxy-4-pyridyl)-3-(3-methylbenzimidazol-5-yl)-1H-pyrrolo[2,3-b]pyridine] | 0.0001 to 1 µM | 10 to 200 µM | 0.0001 to 1 µM
CCCn1cnc2cc(-c3c[nH]c4ncc(OC)cc34)ccc21 [P-056, 5-methoxy-3-(1-propylbenzimidazol-5-yl)-1H-pyrrolo[2,3-b]pyridine] | 0.0001 to 1 µM | 10 to 200 µM | 0.0001 to 1 µM
O=S(=O)(C1CC1)N1CCC=C(c2cnc3[nH]cc(-c4ccc5[nH]cnc5c4)c3c2)C1 [P-032, 3-(1H-benzimidazol-5-yl)-5-(1-cyclopropylsulfonyl-3,6-dihydro-2H-pyridin-5-yl)-1H-pyrrolo[2,3-b]pyridine] | 1 to 10 µM | 10 to 200 µM | 0.0001 to 1 µM
Cn1cnc2ccc(-c3c[nH]c4ncc(-c5ccc(S(=O)(=O)N6CCCC6)cc5)cc34)cc21 [P-091, 1-methyl-6-[5-(4-pyrrolidin-1-ylsulfonylphenyl)-1H-pyrrolo[2,3-b]pyridin-3-yl]benzimidazole] | 0.0001 to 1 µM | 0.0001 to 1 µM | 0.0001 to 1 µM
CC(C)N1CCOc2ccc(-c3c[nH]c4ncc(-c5cccc(NS(C)(=O)=O)c5)nc34)cc21 [P-086, N-[3-[7-(4-isopropyl-2,3-dihydro-1,4-benzoxazin-6-yl)-5H-pyrrolo[2,3-b]pyrazin-2-yl]phenyl]methanesulfonamide] | 0.0001 to 1 µM | 10 to 200 µM | 0.0001 to 1 µM
Cn1cnc2ccc(-c3c[nH]c4ncc(C5=CCN(C(=O)C6CC6)C5)nc34)cc21 [P-082, cyclopropyl-[3-[7-(3-methylbenzimidazol-5-yl)-5H-pyrrolo[2,3-b]pyrazin-2-yl]-2,5-dihydropyrrol-1-yl]methanone] | 0.0001 to 1 µM | 1 to 10 µM | 0.0001 to 1 µM
COc1cnc2[nH]cc(-c3ccc4occc4c3)c2c1 [P-036, 3-(benzofuran-5-yl)-5-methoxy-1H-pyrrolo[2,3-b]pyridine] | 10 to 200 µM | 10 to 200 µM | 1 to 10 µM
CS(=O)(=O)Nc1cccc(-c2cnc3[nH]cc(-c4ccc5c(c4)N(CC4CC4)CCO5)c3n2)c1 [P-081, N-[3-[7-[4-(cyclopropylmethyl)-2,3-dihydro-1,4-benzoxazin-6-yl]-5H-pyrrolo[2,3-b]pyrazin-2-yl]phenyl]methanesulfonamide] | 0.0001 to 1 µM | 10 to 200 µM | 0.0001 to 1 µM
CC(C)S(=O)(=O)Nc1cccc(-c2cnc3[nH]cc(-c4ccc5ncn(C)c5c4)c3c2)c1 [P-096, N-[3-[3-(3-methylbenzimidazol-5-yl)-1H-pyrrolo[2,3-b]pyridin-5-yl]phenyl]propane-2-sulfonamide] | 0.0001 to 1 µM | 1 to 10 µM | 0.0001 to 1 µM
COc1cc(-c2cnc3[nH]cc(-c4ccc5ncn(C)c5c4)c3n2)ccn1 [P-045, 2-(2-methoxy-4-pyridyl)-7-(3-methylbenzimidazol-5-yl)-5H-pyrrolo[2,3-b]pyrazine] | 0.0001 to 1 µM | 10 to 200 µM | 0.0001 to 1 µM
